Measurements published in patent US7576224B2, “Insecticidal (dihalopropenyl) phenylalkyl substituted dihydrobenzofuran and dihydrobenzopyran derivatives” (FMC Corporation, priority 2003, dated 2009).

Legend:
[1] = tested on: tobacco budworm (Heliothis virescens [Fabricius]); assay: Surface-treated diet test against tobacco budworm; assay type: in vivo; conditions: 0.25 millimolar on the surface of the diet, second instar larvae, five-day exposure; for Percent Growth Inhibition: insect weight relative to untreated controls
From the text: Surface-Treated Diet Test Against Tobacco Budworm
The test compounds of formula I are identified by numbers that correspond to those in Table 1.

[2] = tested on: tobacco budworm (Heliothis virescens [Fabricius]); assay: Foliar treated test against tobacco budworm (chick pea plants); assay type: in vivo; conditions: rate of application 30 ppm; foliage; 96 hour exposure
From the text: (§1) Foliar Treated Test Against Tobacco Budworm and Cabbage Looper
(§2) Nine-to-ten day-old chick pea plants (Cicer arietinum) were sprayed at 15 psi to runoff on both upper and lower leaf surfaces with solutions of test compound to provide application rates as high as 1000 ppm of test chemical. The solvent used to prepare the solutions of test compound was 10% acetone or methanol (v/v) and 0.1% of the surfactant octylphenoxypolyethoxyethanol in distilled water. Four replicates, each containing one chick pea plant, for each rate of application of test compound were sprayed. The treated plants were transferred to a hood where they were kept until the spray had dried.
(§3) The four chick pea plants for each replicate treated with test compound as described above were removed from their pots by cutting the stems just above the soil line. The excised leaves and stems from the four plants in each replicate were placed in individual 237 mL (8-ounce) paper cups, which contained a moistened filter paper. Five second-instar (7 days old) tobacco budworms or cabbage loopers (7 days old) were counted into each cup, taking care not to cause injury. An opaque plastic lid was placed on each cup, which was then held in a growth chamber for a 96 hour exposure period at 25° C., 50% relative humidity and photo-period of 12 hours light and 12 hours dark. At the end of the 96 hour exposure period the cups were opened, and the numbers of dead, moribund, and live insects were counted. Using the insect counts, the efficacy of the test compound was expressed in percent control. Percent control is derived from the total number of dead insects (TD) plus the total number of moribund insects (TM) as compared to the total number of insects (TI) in the test:
(§4) The condition of the test plants was also observed for phytotoxicity and for reduction of feeding damage as compared to an untreated control.

[3] = tested on: cabbage looper (Trichoplusia ni [Hubner]); assay: Foliar treated test against cabbage looper (chick pea plants); assay type: in vivo; conditions: rate of application 30 ppm; foliage; 96 hour exposure
From the text: as §1, §2, §3, §4

[4] = tested on: Diamondback Moth (Plutella xylostella); assay: Foliar treated test against diamondback moth (cabbage leaf discs); assay type: in vivo; conditions: rate of application 30 ppm; foliage; 96 hour exposure
Protocol: Four replicates, each containing one cabbage leaf disc, for each rate of application of test compound were dipped. The four cabbage leaf discs for each replicate treated were immersed for five seconds in the solution of test compound as described above. Each discs was then placed in individual 50 mm Petrie dishes containing a filter paper 42.5 mm in diameter that had been moistened with 100 μL of water. The uncovered Petrie dishes were then set aside until the leaf discs were dry. After this time, two third-instar diamondback moth larvae (10-14 days old) were carefully placed on each leaf disc. A tight-fitting lid was then placed on each Petrie dish, which was which was then held in a growth chamber for a 96 hour exposure period at 25° C., 50% relative humidity and photo-period of 12 hours light and 12 hours dark. At the end of the 96 hour exposure period the Petrie dishes were uncovered, and the numbers of dead, moribund, and live insects were counted. Using the insect counts, the efficacy of the test compound was expressed in percent control by methods set forth above in tests against the tobacco budworm and cabbage looper.

cabbage looper = assay: Whole plant foliar treated test against cabbage looper; assay type: in vivo, Trichoplusia ni; conditions: cabbage plants sprayed, 96 hour exposure; for Percent Control at 25 g: rate of application 25 g; for Percent Control at 50 g: rate of application 50 g; for Percent Control at 100 g: rate of application 100 g
Protocol: Whole Plant Foliar Treated Test Against Cabbage Looper
For each rate of application of test compound, a 15 mL aliquot of test solution was prepared. Sufficient test compound was dissolved in 1.5 mL of acetone to provide an application rate as high as 1000 grams/Ha. Each solution was then added to 13.5 mL of water containing 300 ppm of a surfactant. There were four replicates for each rate of application of test compound, and all tests included a known chemical standard as well as a standard of water and surfactant and untreated checks.
A maximum of 14 appropriately sized cabbage plants for each rate of application and replicate were arranged in a 28 pot plastic flat and sprayed with the 15 mL sample of test compound using an traveling boom sprayer equipped with a cone spray tip at a rate of 30 gallons/acre under a pressure of 40-44 psi. The untreated checks were sprayed first, followed by the test compounds and standards, all in order of lowest to highest rates of application. Once the spraying was complete, the test plants were allowed to air-dry on the conveyor on which they were sprayed.
For each rate of application and replication, sufficient Petrie dishes, 50×9 mm in size, were lined with filter paper disks and each were moistened with 0.5 mL of distilled water. From each replicate cabbage plant at least three 2.5 cm disks were cut Each leaf disk was then placed in an individual Petrie dishes with the adaxial side of the leaf facing up. Following placement of the leaf disks, two neonate cabbage looper larvae were placed on each disk. Upon completion of infestation each Petrie dish was covered and held in a growth chamber for a 96 hour exposure period at 25° C., 40%-60% relative humidity and photo-period of 12 hours light and 12 hours dark. At the end of the 96 hour exposure period the Petrie dishes were opened, and the numbers of dead, moribund, and live insects were counted. Using the insect counts, the efficacy of the test compound was expressed in percent control. Percent control is derived from the total number of dead insects (TD) plus the total number of moribund insects (TM) as compared to the total number of insects (TI) in the test:
[formula] The condition of the test plants was also observed for phytotoxicity and for reduction of feeding damage as compared to an untreated control.

[5] = Photostability (rate of photolysis, thin film on glass, Suntest CPS illuminator); assay type: physicochemical; conditions: for Percent of Compound 12 Half-life: relative photolysis half-life compared to compound 12; for Photolysis Half-life: thin film on glass coverslips, filtered xenon lamp, about 25° C.
Protocol: These tests were conducted in the following manner:
For each compound tested, three glass microscope coverslips (12 mm in diameter) for each illumination period (1, 3, 6, 12, and 24 hours) were spotted with 10 microliters of a one mg/mL acetonitrile or methanol solution of test compound. Three coverslips were also spotted with test compound and were not illuminated. The material on these non-illuminated coverslips was analyzed at the end of the experiment as described below to determine the test compound stability on glass. The solvents in each 10 microliter solution on each coverslip were allowed to evaporate leaving a thin film of test compound on each coverslip. Three of the coverslips representing the zero hour illumination period were then placed in a 20 mL scintillation vial. In the vial was placed one mL of acetonitrile, which extracted the test chemical from the coverslip. The solution was then transferred to a two-dram vial for analysis by HPLC. The average HPLC peak area generated by this sample defined the initial level of test compound. The remaining coverslips were then placed in the water-cooled chamber of the exposure platform of a Suntest CPS illuminator (Heraeus Instruments GmbH; Bereich Original Hanau, Hersaeusstrasse R-14, Postfach 1563, D-6450 Hanau 1). The exposure platform was covered with a quartz plate and maintained at about 25° C. for the duration of the test. The Suntest CPS illuminator employs a filtered xenon lamp, which provides illumination of a similar spectrum and intensity as sunlight. Three coverslips for each test compound were removed from the illuminator at 1, 3, 6, 12, and 24 hours of continuous illumination. Approximately eight hours of illumination is equivalent to one summer day at 40° N latitude. The three coverslips from each of the illumination periods were treated as described above and analyzed by HPLC. The average HPLC peak area from each of these illumination periods represents a diminished amount of test compound when compared to the initial level of test compound as determined from the zero hour illumination sample. The percents of test compound remaining from each of these illumination periods were used to generate a degradation curve from which a half-life in hours was determined for each test compound.

| Compound | Percent Mortality [1] [%] | Percent Growth Inhibition [1] [%] | Percent Control TBW (Tobacco Budworm) [2] [%] | Percent Control CL (Cabbage Looper) [3] [%] | Percent Control DBM (Diamondback Moth) [4] [%] | Percent Control at 25 g (cabbage looper) [%] | Percent Control at 50 g (cabbage looper) [%] | Percent Control at 100 g (cabbage looper) [%] | Percent of Compound 12 Half-life [5] [%] | Photolysis Half-life [5] [h] |
| --- | --- | --- | --- | --- | --- | --- | --- | --- | --- | --- |
| CC1(C)Cc2cccc(OCCCCOc3c(Cl)cc(OCC=C(Cl)Cl)cc3Cl)c2O1 [Compound 12, 5-(3,3-Dichloroprop-2-enyloxy)-2-[4-(2,2-dimethyl(2,3-dihydrobenzo[2,3-b]furan-7-yloxy))butoxy]-1,3-dichlorobenzene] | 100 | 100 | 88 | 96 | 91 | 88 | 100 | 100 | 100 | 19 |
| CC1(C)Cc2cc(C(F)(F)F)cc(OCCCCOc3c(Cl)cc(OCC=C(Cl)Cl)cc3Cl)c2O1 [Compound 20, 5-(3,3-dichloroprop-2-enyloxy)-2-{4-[2,2-dimethyl-5-(trifluoromethyl)(2,3-dihydrobenzo[2,3-b]furan-7-yloxy)]-butoxy}1,3-dichlorobenzene] | 100 | 100 |  |  |  |  |  |  |  |  |
| CC1(C)Cc2cccc(OC(=O)NCCCOc3c(Cl)cc(OCC=C(Cl)Cl)cc3Cl)c2O1 [Compound 53, N-{3-[4-(3,3-dichloroprop-2-enyloxy)-2,6-dichlorophenoxy]propyl}(2,2-dimethyl(2,3-dihydrobenzo[2,3-b]furan-7-yloxy))-carboxamide] | 100 | 100 |  |  |  |  |  |  |  |  |
| ClC(Cl)=CCOc1cc(Cl)c(OCCCCOc2cccc3ccoc23)c(Cl)c1 [Compound W] |  |  | 62 | 20 | 60 |  |  |  | 58 | 11 |
| Cc1cc2cccc(OCCCCOc3c(Cl)cc(OCC=C(Cl)Cl)cc3Cl)c2o1 [X] |  |  | 96 | 50 | 85 | 8 | 8 | 13 | 32 | 6 |
| ClC(Cl)=CCOc1cc(Cl)c(OCCCCCc2cc3ccccc3o2)c(Cl)c1 [Y] |  |  | 5 |  |  |  |  |  | 21 | 4 |
| ClC(Cl)=CCOc1cc(Cl)c(OCCCCOc2cccc3occc23)c(Cl)c1 [Z] |  |  | 60 | 20 | 60 |  |  |  | 21 | 4 |
